{
  "source": "patent US20040180902A1",
  "about": "“3-Substituted quinoline-4-carboxamide derivatives as nk-3 and nk-2 receptor antagonists” (priority 2001, published 2004)",
  "data": [
    {"compound": "C[C@H](NC(=O)c1c(CN2CCN(C[C@H](O)CO)CC2)c(-c2ccccc2)nc2ccccc12)C1CCCCC1", "note": "[Example 19, 3-[4-((S)-2,3-Dihydroxy-propyl)-piperazin-1-ylmethyl]-2-phenyl-quinoline-4-carboxylic acid ((S)-1-cyclohexyl-ethyl)-amide]", "values": [
      {"measurement": "melting point", "result": "124 to 126", "unit": "°C"}
    ]},
    {"compound": "C[C@H](NC(=O)c1c(CN2CCN(C[C@H](O)CO)C(=O)C2)c(-c2ccccc2)nc2ccccc12)C1CCCCC1", "note": "[Example 4, (S) 3-[4-(2,3-Dihydroxy-propyl)-3-oxo-piperazin-1-ylmethyl]-2-phenyl-quinoline-4-carboxylic acid ((S)-1-cyclohexyl-ethyl)-amide]", "values": [
      {"measurement": "melting point", "result": "125 to 127", "unit": "°C"}
    ]},
    {"compound": "CC(NC(=O)c1c(CN2CCN(C[C@H](O)CO)C(=O)C2)c(-c2ccccc2)nc2ccc(F)cc12)C1CCCCC1", "note": "(stereo partly drawn) [Example 21, 3-[4-((S)-2,3-Dihydroxy-propyl)-3-oxo-piperazin-1-ylmethyl]-6-fluoro-2-phenyl-quinoline-4-carboxylic acid (1-cyclohexyl-ethyl)-amide]", "values": [
      {"measurement": "melting point", "result": "190 to 192", "unit": "°C"}
    ]},
    {"compound": "C[C@H](NC(=O)c1c(CN2CCNCC2=O)c(-c2ccccc2)nc2ccc(F)cc12)C1CCCCC1", "note": "[Example 15, 6-Fluoro-3-(2-oxo-piperazin-1-ylmethyl)-2-phenyl-quinoline-4-carboxylic acid ((S)-1-cyclohexyl-ethyl)-amide]", "values": [
      {"measurement": "melting point", "result": "240 to 242", "unit": "°C"}
    ]},
    {"compound": "C[C@H](NC(=O)c1c(CN2CCN(CCOCCO)C(=O)C2)c(-c2ccccc2)nc2ccccc12)C1CCCCC1", "note": "[Example 16, 3-{4-[2-(2-Hydroxy-ethoxy)-ethyl]-3-oxo-piperazin-1-ylmethyl}-2-phenyl-quinoline-4-carboxylic acid ((S)-1-cyclohexyl-ethyl)-amide]", "values": [
      {"measurement": "melting point", "result": "125 to 128", "unit": "°C"}
    ]},
    {"compound": "C[C@H](NC(=O)c1c(CN2CCN(C[C@H](O)CO)C(=O)C2)c(-c2cccs2)nc2ccccc12)C1CCCCC1", "note": "[Example 23, 3-[4-((S)-2,3-Dihydroxy-propyl)-3-oxo-piperazin-1-ylmethyl]-2-thiophen-2-yl-quinoline-4-carboxylic acid ((S)-1-cyclohexyl-ethyl)-amide]", "values": [
      {"measurement": "melting point", "result": "115 to 117", "unit": "°C"}
    ]},
    {"compound": "C[C@H](NC(=O)c1c(CN2CCN(CCCO)C(=O)C2)c(-c2cccs2)nc2ccccc12)C1CCCCC1", "note": "[Example 18, 3-[4-(3-Hydroxy-propyl)-3-oxo-piperazin-1-ylmethyl]-2-thiophen-2-yl-quinoline-4-carboxylic acid ((S)-1-cyclohexyl-ethyl)-amide]", "values": [
      {"measurement": "melting point", "result": "117 to 119", "unit": "°C"}
    ]},
    {"compound": "C[C@H](NC(=O)c1c(CN2CCN(CCOCCO)C(=O)C2)c(-c2cccs2)nc2ccccc12)C1CCCCC1", "note": "[Example 17, 3-{4-[2-(2-Hydroxy-ethoxy)-ethyl]-3-oxo-piperazin-1-ylmethyl}-2-thiophen-2-yl-quinoline-4-carboxylic acid ((S)-1-cyclohexyl-ethyl)-amide]", "values": [
      {"measurement": "melting point", "result": "102 to 104", "unit": "°C"}
    ]},
    {"compound": "C[C@H](NC(=O)c1c(CN2CCN(CCO)C(=O)C2)c(-c2ccccc2)nc2ccc(F)cc12)C1CCCCC1", "note": "[Example 7, 6-Fluoro-3-[4-(2-hydroxy-ethyl)-3-oxo-piperazin-1-ylmethyl]-2-phenyl-quinoline-4-carboxylic acid ((S)-1-cyclohexyl-ethyl)-amide]", "values": [
      {"measurement": "melting point", "result": "120 to 122", "unit": "°C"}
    ]},
    {"compound": "C[C@H](NC(=O)c1c(CN2CCNC(=O)C2)c(-c2ccccc2)nc2cc(F)c(F)cc12)C1CCCCC1", "note": "[Example 2, 6,7-Difluoro-3-(3-oxo-piperazin-1-ylmethyl)-2-phenyl-quinoline-4-carboxylic acid ((S)-1-cyclohexyl-ethyl)-amide]", "values": [
      {"measurement": "melting point", "result": "185 to 190", "unit": "°C"}
    ]},
    {"compound": "C[C@H](NC(=O)c1c(CN2CCN(CCCO)CC2)c(-c2ccccc2)nc2ccc(F)cc12)C1CCCCC1", "note": "[Example 9, 6-Fluoro-3-[4-(3-hydroxy-propyl)-piperazin-1-ylmethyl]-2-phenyl-quinoline-4-carboxylic acid ((S)-1-cyclohexyl-ethyl)-amide]", "values": [
      {"measurement": "melting point", "result": "182 to 184", "unit": "°C"}
    ]},
    {"compound": "C[C@H](NC(=O)c1c(CN2CCN(CCOCCO)CC2)c(-c2cccs2)nc2ccccc12)C1CCCCC1", "note": "[Example 11, 3-{4-[2-(2-Hydroxy-ethoxy)-ethyl]-piperazin-1-ylmethyl}-2-thiophen-2-yl-quinoline-4-carboxylic acid ((S)-1-cyclohexyl-ethyl)-amide]", "values": [
      {"measurement": "melting point", "result": "182 to 188", "unit": "°C"}
    ]},
    {"compound": "C[C@H](NC(=O)c1c(CN2CCN(C[C@@H](O)CO)C(=O)C2)c(-c2ccccc2)nc2ccc(F)cc12)C1CCCCC1", "note": "[Example 22, 3-[4-((R)-2,3-Dihydroxy-propyl)-3-oxo-piperazin-1-ylmethyl]-6-fluoro-2-phenyl-quinoline-4-carboxylic acid ((S)-1-cyclohexyl-ethyl)-amide]", "values": [
      {"measurement": "melting point", "result": "143 to 145", "unit": "°C"}
    ]},
    {"compound": "C[C@H](NC(=O)c1c(CN2CCN(C(=O)NCCO)CC2)c(-c2ccccc2)nc2ccccc12)C1CCCCC1", "note": "[Example 25, 3-[4-(2-Hydroxy-ethylcarbamoyl)-piperazin-1-ylmethyl]-2-phenyl-quinoline-4-carboxylic acid ((S)-1-cyclohexyl-ethyl)-amide]", "values": [
      {"measurement": "melting point", "result": "155 to 157", "unit": "°C"}
    ]},
    {"compound": "C[C@H](NC(=O)c1c(CN2CCN(CCOCCO)CC2)c(-c2ccccc2)nc2ccc(F)cc12)C1CCCCC1", "note": "[Example 8, 6-Fluoro-3-{4-[2-(2-hydroxy-ethoxy)-ethyl]-piperazin-1-ylmethyl}-2-phenyl-quinoline-4-carboxylic acid ((S)-1-cyclohexyl-ethyl)-amide]", "values": [
      {"measurement": "melting point", "result": "142 to 144", "unit": "°C"}
    ]},
    {"compound": "C[C@H](NC(=O)c1c(CN2CCN(C[C@@H](O)CO)C(=O)C2)c(-c2ccccc2)nc2ccccc12)C1CCCCC1", "note": "[Example 5, (R) 3-[4-(2,3-Dihydroxy-propyl)-3-oxo-piperazin-1-ylmethyl]-2-phenyl-quinoline-4-carboxylic acid ((S)-1-cyclohexyl-ethyl)-amide]", "values": [
      {"measurement": "melting point", "result": "133 to 135", "unit": "°C"}
    ]},
    {"compound": "C[C@H](NC(=O)c1c(CN2CCN(CCO)CC2)c(-c2ccccc2)nc2ccc(F)cc12)C1CCCCC1", "note": "[Example 10, 6-Fluoro-3-[4-(2-hydroxy-ethyl)-piperazin-1-ylmethyl]-2-phenyl-quinoline-4-carboxylic acid ((S)-1-cyclohexyl-ethyl)-amide]", "values": [
      {"measurement": "melting point", "result": "114 to 116", "unit": "°C"}
    ]},
    {"compound": "C[C@H](NC(=O)c1c(CN2CCN(C[C@@H](O)CO)CC2)c(-c2ccccc2)nc2ccccc12)C1CCCCC1", "note": "[Example 20, 3-[4-((R)-2,3-Dihydroxy-propyl)-piperazin-1-ylmethyl]-2-phenyl-quinoline-4-carboxylic acid ((S)-1-cyclohexyl-ethyl)-amide]", "values": [
      {"measurement": "melting point", "result": "126 to 128", "unit": "°C"}
    ]},
    {"compound": "C[C@H](NC(=O)c1c(CN2CCN(CCO)CC2)c(-c2cccs2)nc2ccccc12)C1CCCCC1", "note": "[Example 12, 3-[4-(2-Hydroxy-ethyl)-piperazin-1-ylmethyl]-2-thiophen-2-yl-quinoline-4-carboxylic acid ((S)-1-cyclohexyl-ethyl)-amide]", "values": [
      {"measurement": "melting point", "result": 110, "unit": "°C"}
    ]},
    {"compound": "C[C@H](NC(=O)c1c(CN2CCN(CCCO)C(=O)C2)c(-c2ccccc2)nc2ccccc12)C1CCCCC1", "note": "[Example 14, 3-[4-(3-Hydroxy-propyl)-3-oxo-piperazin-1-ylmethyl]-2-phenyl-quinoline-4-carboxylic acid ((S)-1-cyclohexyl-ethyl)-amide]", "values": [
      {"measurement": "melting point", "result": "120 to 122", "unit": "°C"}
    ]},
    {"compound": "C[C@H](NC(=O)c1c(CN2CCN(CCOCCO)C(=O)C2)c(-c2ccccc2)nc2ccc(F)cc12)C1CCCCC1", "note": "[Example 3, 6-Fluoro-3-{4-[2-(2-hydroxy-ethoxy)-ethyl]-3-oxo-piperazin-1-ylmethyl}-2-phenyl-quinoline-4-carboxylic acid ((S)-1-cyclohexyl-ethyl)-amide]", "values": [
      {"measurement": "melting point", "result": "110 to 112", "unit": "°C"}
    ]},
    {"compound": "C[C@H](NC(=O)c1c(CN2CCN(CCO)C(=O)C2)c(-c2cccs2)nc2ccccc12)C1CCCCC1", "note": "[Example 1, 3-[4-(2-Hydroxy-ethyl)-3-oxo-piperazin-1-ylmethyl]-2-thiophen-2-yl-quinoline-4-carboxylic acid ((S)-1-cyclohexyl-ethyl)-amide]", "values": [
      {"measurement": "melting point", "result": "212 to 215", "unit": "°C"}
    ]},
    {"compound": "C[C@H](NC(=O)c1c(CN2CCN(CCCO)C(=O)C2)c(-c2ccccc2)nc2ccc(F)cc12)C1CCCCC1", "note": "[Example 6, 6-Fluoro-3-[4-(3-hydroxy-propyl)-3-oxo-piperazin-1-ylmethyl]-2-phenyl-quinoline-4-carboxylic acid ((S)-1-cyclohexyl-ethyl)-amide]", "values": [
      {"measurement": "melting point", "result": "110 to 130", "unit": "°C"}
    ]},
    {"compound": "C[C@H](NC(=O)c1c(CN2CCN(CCCO)CC2)c(-c2ccccc2)nc2ccccc12)C1CCCCC1", "note": "[Example 13, 3-[4-(3-Hydroxy-propyl)-piperazin-1-ylmethyl]-2-phenyl-quinoline-4-carboxylic acid ((S)-1-cyclohexyl-ethyl)-amide]", "values": [
      {"measurement": "melting point", "result": "168 to 170", "unit": "°C"}
    ]}
  ]
}
